Experimental data: US6683047B1, “Method of inhibiting transcription utilizing nuclear receptors” (The Burnham Institute, priority 1990, dated 2004)

T1: RARβ binding to RARE (Homo sapiens, UniProt P10826)
T1 construct: made in house; host or cells: in vitro translation (reticulocyte lysate)
T1 sequence (P10826 1-455): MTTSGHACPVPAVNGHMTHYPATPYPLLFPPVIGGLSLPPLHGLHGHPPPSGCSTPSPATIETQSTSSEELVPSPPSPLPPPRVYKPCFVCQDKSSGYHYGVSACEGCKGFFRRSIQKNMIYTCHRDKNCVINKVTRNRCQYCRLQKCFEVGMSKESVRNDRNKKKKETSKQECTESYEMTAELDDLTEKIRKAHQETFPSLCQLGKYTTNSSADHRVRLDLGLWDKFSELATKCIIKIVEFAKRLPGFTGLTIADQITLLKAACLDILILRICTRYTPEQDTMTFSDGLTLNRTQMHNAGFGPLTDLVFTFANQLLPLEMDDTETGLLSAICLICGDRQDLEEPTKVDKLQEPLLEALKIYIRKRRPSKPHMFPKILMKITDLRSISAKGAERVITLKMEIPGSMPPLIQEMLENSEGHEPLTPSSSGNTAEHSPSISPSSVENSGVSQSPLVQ

B1: RARβ: in vitro synthesized (cell-free translated) retinoic acid receptor β protein (protein, UniProt P10826 1-455, looked up)
Retinoic acid receptor beta: T1 sequence (P10826 1-455)
B2: RARγ: in vitro synthesized (cell-free translated) retinoic acid receptor γ protein (protein, UniProt P13631 1-454, looked up)
Retinoic acid receptor gamma: MATNKERLFAAGALGPGSGYPGAGFPFAFPGALRGSPPFEMLSPSFRGLGQPDLPKEMASLSVETQSTSSEEMVPSSPSPPPPPRVYKPCFVCNDKSSGYHYGVSSCEGCKGFFRRSIQKNMVYTCHRDKNCIINKVTRNRCQYCRLQKCFEVGMSKEAVRNDRNKKKKEVKEEGSPDSYELSPQLEELITKVSKAHQETFPSLCQLGKYTTNSSADHRVQLDLGLWDKFSELATKCIIKIVEFAKRLPGFTGLSIADQITLLKAACLDILMLRICTRYTPEQDTMTFSDGLTLNRTQMHNAGFGPLTDLVFAFAGQLLPLEMDDTETGLLSAICLICGDRMDLEEPEKVDKLQEPLLEALRLYARRRRPSQPYMFPRMLMKITDLRGISTKGAERAITLKMEIPGPMPPLIREMLENPEMFEDDSSQPGPHPNASSEDEVPGGQGKGGLKSPA

Columns and labels:
collagenase AP-1 site = test: Gel retardation assay, binding to DNA fragment containing the collagenase AP-1 site; conditions: in vitro synthesized protein, 32P-labelled fragment
Description: In vitro synthesized glucocorticoid receptor (GR) and retinoic acid receptor (RAR) were incubated with ^32P-labelled DNA fragment derived from −73 COL-CAT by Hind III and Bam HI digestion. Protein-DNA complex was analyzed by gel retardation assay. Control represents the binding of unprogrammed reticulocyte lysate.
Gel retardation experiments were carried out with a 60 bp DNA fragment containing the collagenase AP-1 site.

RARβ binding to RARE = target: T1, RARβ binding to RARE; test: Gel retardation assay, effect on RARβ binding to RARE; conditions: bacterially produced cJun pre-incubated with RARβ
Description: In vitro synthesized RAR protein was incubated with ^32P-labelled DNA fragment containing one copy of RARE. The binding of RAR on RARE was analyzed by gel retardation assay. […] C represents the binding of unprogrammed reticulocyte lysate in FIG. 5. To test the effect of cJun protein on RAR binding, excess amount of bacterial expressed Jun protein was incubated with RAR at 37° C. for 15 minutes before the addition of DNA. When anti-cJun (a cJun) was used, it was incubated with Jun protein at room temperature for 45 minutes before mixing with RAR protein.
This inhibition was specific as it was prevented by pre-incubation of cJun with anti-Jun antibodies.

[1] = system: collagenase promoter AP-1 site (RARβ); test: -73Col-CAT reporter co-transfected with RARβ expression vector in HeLa cells, TPA induced CAT activity; assay type: cell-based
Description: The −73 Col CAT reporter gene was cotransfected into HeLa with an expression vector for RARβ/ε. Cells were grown in the presence of the indicated amounts of RA and/or TPA.

[2] = system: collagenase promoter lacking AP-1 site (-63Col-CAT); test: -63Col-CAT reporter co-transfected with RARβ in HeLa cells; assay type: cell-based; conditions: presence or absence of RA
[3] = system: TPA induced collagenase promoter activity (TRα); test: -73 Col CAT reporter in CV-1 cells, T3 dependent repression by TRα; assay type: cell-based
Description: In addition, applicants have discovered that the thyroid hormone receptor, in the presence of Thyroid hormone, binds AP-1 through a protein/protein interaction and inhibits the transcription of AP-1 activated genes. Specifically, TRα represses TPA induced collagenase promoter activity in a T3 dependent fashion. The −73 Col CAT reporter gene was cotransfected into CV-1 cells with an expression vector for […]. Cells were grown in the presence of the indicated amounts of T3 and/or TPA.

[4] = target: T2, cJun binding to the AP-1 site (Homo sapiens, UniProt P05412); test: Gel retardation assay, effect on cJun binding to the AP-1 site; conditions: one-fold or five-fold excess, 37° C. for 15 minutes
T2 construct: made in house; host or cells: cell-free (in vitro) translation or bacteria
Description: In vitro synthesized cJun protein was incubated with one-fold (1) or five-fold (5) excess of in vitro synthesized RARβ or RARγ protein at 37° C. for 15 minutes. The effect of RARβ or RARγ or cJun binding was analyzed by gel retardation assay.
The Inhibition of cJun binding to the AP-1 site was dependent on the amount of RARs used, and was also observed in response to pre-incubation with in vitro synthesized GR (FIG. 4). As shown for the GRs in Example VI, this in vitro inhibition of cJun binding was ligand independent. The inhibition of Jun binding activity is a specific effect of each receptor because pre-incubation of the cell-free translated RARβ with anti-RAR antibodies prevented this inhibition, while pre-incubation with anti-GR or preimmune serum had no effect. Likewise, the inhibitory activity of cell-free translated GR is inhibited by anti-GR antibodies, but not by anti-RAR or preimmune serum. […] We therefore investigated whether the binding of the heterodimers could also be inhibited by the RAR.

T2 sequence (P05412 whole entry): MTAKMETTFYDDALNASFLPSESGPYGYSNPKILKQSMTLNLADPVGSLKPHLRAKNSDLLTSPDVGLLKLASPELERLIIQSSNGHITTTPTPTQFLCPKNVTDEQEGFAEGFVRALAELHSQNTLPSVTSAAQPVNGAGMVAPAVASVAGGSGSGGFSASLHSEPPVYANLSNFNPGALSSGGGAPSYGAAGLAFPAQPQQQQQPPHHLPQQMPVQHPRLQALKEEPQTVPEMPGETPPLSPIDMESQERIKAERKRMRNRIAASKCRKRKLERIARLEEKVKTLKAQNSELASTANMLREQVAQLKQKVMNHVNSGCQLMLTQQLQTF

| Molecule | binding to collagenase AP-1 site or synthetic AP-1 site (collagenase AP-1 site) | inhibition of cJun binding to the AP-1 site [4] | also measured |
| --- | --- | --- | --- |
| cJun: bacterially produced or in vitro translated cJun protein, AP-1 component | specific binding | – | inhibition of RARβ DNA binding activity on RARE (RARβ binding to RARE): inhibited its DNA binding activity in a concentration dependent manner |
| CC1=C(/C=C/C(C)=C/C=C/C(C)=C/C(=O)O)C(C)(C)CCC1 [RA, retinoic acid] | – | – | concentration required for maximal repression of TPA induced activity of -73 Col-CAT [1]: 10^−6 M; IC50 ([1]; Homo sapiens, read-out: half maximal inhibition of TPA induced activity of -73 Col-CAT by RARβ): 1 nM; effect on -63Col-CAT activity [2]: no effect |
| N[C@@H](Cc1cc(I)c(Oc2ccc(O)c(I)c2)c(I)c1)C(=O)O [T3] | – | – | repression of TPA collagenase promoter activity [3]: dependant on the concentration of T3 |
| GR: in vitro synthesized glucocorticoid receptor | did not bind | also observed | – |
| B1 | did not bind | significant inhibition | – |
| B2 | – | significant inhibition | – |
